{
  "source": "patent US20200078463A1",
  "about": "“COMPOSITION HAVING IMPROVED WATER SOLUBILITY AND BIOAVAILABILITY” (SAMYANG BIOPHARMACEUTICALS CORPORATION, priority 2017, published 2020)",
  "experiment": "Additive screening: dissolved sorafenib in pH 1.2 buffer by HPLC",
  "format": "physicochemical",
  "details": "100 mg sorafenib tosylate (crystalline form III) + 10 mg additive in 1 ml pH 1.2 buffer, shaken at 1,100 rpm for 24 hours, filtered 0.45 μm",
  "method": "In order to test the content of drug included in the formulation, it was analyzed by HPLC using the following test method.\n(1) Buffer preparation: After dissolving 0.77 g ammonium acetate in 1000 ml of water, the pH of the solution was adjusted to 6.8±0.05 using ammonia solutions.\n(2) The solution of (1) and acetonitrile were mixed at 40:60 (v/v), and the solution filtered with a filter paper having a pore size of 0.45 μm and degassed was used as a mobile phase.\nThe buffer solution (1) and acetonitrile were mixed at 30:70 (v/v) to obtain a dilution solution.\n1 ml of the standard solution (300 μg/ml) was precisely taken, and 2 ml of the diluted solution was added to prepare a standard solution (100 μg/ml). 1 ml of the standard solution (300 μg/ml) was precisely taken, and 4 ml of the diluted solution was added to prepare a standard solution (60 μg/ml). 1 ml of the standard solution (100 μg/ml) was precisely taken, and 4 ml of the diluted solution was added to prepare a standard solution (20 μg/ml). A calibration curve was drawn using the four standard solutions and used to calculate the content of the test solution.\nDetector: ultraviolet absorbance photometer (wavelength 265 nm)\nColumn: Eclipse XDB-C18, 4.6 mm×150 mm, 5 μm or equivalent column\nColumn temperature: 27° C.\nIt was shaken at 1,100 rpm for 24 hours. […]",
  "note": "Where a name gives a salt, the structure may show the parent alone.",
  "data": [
    {"smiles": "CNC(=O)c1cc(Oc2ccc(NC(=O)Nc3ccc(Cl)c(C(F)(F)F)c3)cc2)ccn1", "note": "[No polymer, sorafenib tosylate]", "values": [
      {"measurement": "Concentration of dissolved sorafenib", "value": 100, "unit": "ng/mL"}
    ]}
  ]
}
